Test results: US20070048782A1, “Methods for assessing and treating leukemia” (priority 2001, published 2007)

Experiments:
U-937 cells = assay: Toxic dose assay, viable cell count by trypan blue exclusion at day seven; assay type: cell-based; settings: seven days of treatment, duplicate runs, read-out: IC50 (dose at which the number of viable cells in the treated sample was 50% of that in the control at day seven)
Method: (§1) The AML-like cell lines HL-60 (promyelocytic) and U-937 (promonocytic) were obtained from the ATCC. AML-193 (monocytic) and THP-1 (monocytic) cells were obtained from the RW Johnson Pharmaceutical Research Center, San Diego. Cells were grown in Roswell Park Memorial Institute medium (RPMI) with 20% Fetal Bovine Serum (FBS). AML-193 was also supplemented with granulocyte-macrophage colony-stimulating factor (GM-CSF) (10 ng/ml), insulin (0.005 mg/ml), and transferrin (0.005 mg/ml).
(§2) The cells of Example 1 were inoculated into 6-well plates at an initial concentration of 1×10^5 cells/ml. (B)-6-[amino(4-chlorophenyl)(1-methyl-1H-imidazol-5-yl)methyl]-4-(3-chlorophenyl)-1-methyl-2(1H)-quinolinone) was added at concentrations ranging form 0.5 to 500 nM in 3 μl of DMSO directly to the culture medium. Control cells from Example 1 were grown in medium alone or in medium supplemented with vehicle (0.1% DMSO). Cell numbers were counted at days four and seven in a hemocytometer and cell viability was determined by trypan blue exclusion assay. The IC50 was defined as the dose at which the number of viable cells in the treated sample was 50% of that in the control at day seven. Calculations were made based on duplicate runs of the experiment. The IC50 of the four cell lines was calculated after seven days of treatment with the FTI.

HL-60 cells = assay: as above; assay type: cell-based; settings: seven days of treatment, duplicate runs, read-out: IC50 (dose at which the number of viable cells in the treated sample was 50% of that in the control at day seven)
Method: as §1, §2

THP-1 cells = assay: as above; assay type: cell-based; settings: seven days of treatment, duplicate runs, read-out: IC50 (dose at which the number of viable cells in the treated sample was 50% of that in the control at day seven)
Method: as §1, §2

AML-193 cells = assay: as above; assay type: cell-based; settings: seven days of treatment, duplicate runs, read-out: IC50 (dose at which the number of viable cells in the treated sample was 50% of that in the control at day seven)
Method: as §1, §2

[1] = system: AML-like cell lines (AML-193, HL-60, THP-1, U-937); assay: Time course assay with cDNA microarray gene expression profiling of treated AML-like cell lines; assay type: cell-based; settings: 100 nM
Method: Duplicate cultures of the cells of Example 1 were inoculated into 6-well plates at an initial concentration of 1×10^5 cells/ml. (B)-6-[amino(4-chlorophenyl)(1-methyl-1H-imidazol-5-yl)methyl]-4-(3-chlorophenyl)-1-methyl-2(1H)-quinolinone) was supplemented at a concentration of 100 nM in 3 μl of DMSO directly to the culture medium. The concentration of 100 nM was chosen for the subsequent time course experiments to normalize the treatment protocol based, in part, on the results of Example 2. Duplicate control cultures were grown in medium containing 0.1% DMSO. Duplicate cultures were harvested daily for a total of six days. Cells were counted, assayed for viability, and total RNA isolated according to the manufacturer's protocol (Qiagen RNeasy). […] RNA was treated with DNase1 (Qiagen DNase1 kit) to remove any residual genomic DNA. Linear amplification of RNA was conducted according to the procedure described in U.S. Pat. No. 5,545,522 to Van Gelder et. al. Aliquots of 5 μg of aRNA were then prepared for hybridization to cDNA arrays. […]
The arrays contained 7452 cDNAs from the IMAGE consortium (Integrated Molecular Analysis of Genome and their Expression: Research Genetics, Huntsville, Ala.) and Incyte libraries. […] The fluorescence intensity for each spot was analyzed with AUTOGENE software (Biodiscovery, Los Angeles). […]

[2] = system: blast cells in bone marrow; assay: Clinical response of AML patients treated with FTI (blast cells in bone marrow aspirates); assay type: in vivo; settings: 600 mg twice daily over a 21 day period
Excerpt: The therapeutic agents referred to in this specification are FTIs. They take on a multitude of forms but share the essential inhibitory function of interfering with or lessening the farnesylation of proteins implicated in cancer and proliferative diseases. Preferably, the FTIs are those indicated for the treatment of leukemias such as AML. A patient who responds to an FTI is one in whom a reduction of more than 50% of blast cells is seen in bone marrow following treatment with the FTI.
Bone marrow aspirates were obtained from two patients diagnosed with AML who had been treated with FTI. These AML patients were administered 600 mg (B)-6-[amino(4-chlorophenyl)(1-methyl-1H-imidazol-5-yl)methyl]-4-(3-chlorophenyl)-1-methyl-2(1H)-quinolinone) twice daily over a 21 day period. Bone marrow aspirates were taken at baseline and once a week for the three weeks of treatment. […] Response was determined as a reduction of more than 50% of blast cells in bone marrow aspirates. The aspirates were diluted to 15 ml with PBS and Ficoll-density centrifuged. White blood cells were washed twice with PBS, resuspended in FBS with 10% DMSO and immediately frozen at −80° C. Cells were cryogenically preserved to maintain cell viability. Samples were thawed at 37° C. and 10× volume of RPMI with 20% FBS was added drop-wise over a period of 5 min. […] Cell viability was determined by Trypan Blue assay. […]

SMILES: Cn1cncc1[C@@](N)(c1ccc(Cl)cc1)c1ccc2c(c1)c(-c1cccc(Cl)c1)cc(=O)n2C [(B)-6-[amino(4-chlorophenyl)(1-methyl-1H-imidazol-5-yl)methyl]-4-(3-chlorophenyl)-1-methyl-2(1H)-quinolinone)]
- IC50 (U-937 cells): 44 nM
- IC50 (HL-60 cells): 24 nM
- IC50 (THP-1 cells): 19 nM
- IC50 (AML-193 cells): 134 nM
- Overall change in gene expression, treated versus control samples from the same day (scatter-plot correlation) [1]: no gross changes in gene expression
- Response (reduction of more than 50% of blast cells in bone marrow aspirates) ([2]; AML patient one): responded
- Response (reduction of more than 50% of blast cells in bone marrow aspirates) ([2]; AML patient two): did not respond
